In ChEMBL document CHEMBL1123151, “Carbocyclic analogues of 5'-amino-5'-deoxy- and 3'-amino-3'-deoxythymidines” (1986):

Legend:
L929 [1] = assay: Compound was tested for inhibition against replication of type 1 herpes simplex virus (HSV-1,strain 377) L929 cells; format: functional, Mus musculus
Vero [2] = assay: Compound was tested for inhibition against replication of type 1 herpes simplex virus (HSV-1,strain 377) in vero cells; Experiment 2; format: functional, Chlorocebus sabaeus
Vero [3] = assay: Compound was tested for inhibition against replication of type 1 herpes simplex virus (HSV-1,strain 377) in vero cells; Experiment 4; format: functional, Chlorocebus sabaeus
[4] = Ratio of the virus rating of the thymidine analogue to the virus rating of ara-A; format: functional
HEp-2 = assay: Compound was tested for inhibition against replication of type 1 herpes simplex virus (HSV-1,strain HF) in human epidermoid carcinoma cells; format: functional
L929 [5] = assay: Compound was tested for inhibition against replication of type 1 herpes simplex virus (HSV-1,strain 377) in L929 cells; Experiment 1; format: functional, Mus musculus
L929 [6] = assay: Compound was tested for inhibition against replication of type 1 herpes simplex virus (HSV-1,strain 377) in L929 cells; Experiment 2; format: functional, Mus musculus
L929 [7] = assay: Compound was tested for inhibition against replication of type 1 herpes simplex virus (HSV-2,strain MS) in L929 cells; format: functional, Mus musculus
Vero [8] = assay: Compound was tested for inhibition against replication of type 1 herpes simplex virus (HSV-1,strain 377) in vero cells; Experiment 3; format: functional, Chlorocebus sabaeus
[9] = Ratio of the virus rating of the thymidine analogue to the virus rating of ara-A; Experiment 1; format: functional
[10] = Ratio of the virus rating of the thymidine analogue to the virus rating of ara-A; Experiment 2; format: functional
Vero [11] = assay: Compound was tested for inhibition against replication of type 1 herpes simplex virus (HSV-1,strain 377) in vero cells; format: functional, Chlorocebus sabaeus
Vero [12] = assay: Compound was tested for inhibition against replication of type 1 herpes simplex virus (HSV-1, strain 377) in vero cells; Experiment 2; format: functional, Chlorocebus sabaeus
Vero [13] = assay: Compound was tested for inhibition against replication of type 1 herpes simplex virus (HSV-1, strain 377) in vero cells; Experiment 5; format: functional, Chlorocebus sabaeus
L929 [14] = assay: Compound was tested for inhibition against replication of type 1 herpes simplex virus (HSV-1,strain 377) in L929 cells; format: functional, Mus musculus
[15] = Ratio of the virus rating of the thymidine analogue to the virus rating of ara-A in vero cells; Experiment 2; format: functional
[16] = Ratio of the virus rating of the thymidine analogue to the virus rating of ara-A in vero cells; Experiment 3; format: functional
[17] = Ratio of the virus rating of the thymidine analogue to the virus rating of ara-A in vero cells; Experiment 4; format: functional

## Cc1cn([C@@H]2C[C@H](CO)[C@@H](N)C2)c(=O)[nH]c1=O
L929 [1]
  VR: 0.4
Vero [2]
  VR: 0
Vero [3]
  VR: 0.4
[4]
  Ratio: 0

## Cc1cn(C2CC(O)C(CN)C2)c(=O)[nH]c1=O (stereo not given)
HEp-2
  VR: 0.2
L929 [5]
  VR: 3
L929 [6]
  VR: 1.8
L929 [7]
  VR: 0.5
Vero [8]
  VR: 0
Vero [3]
  VR: 0
[9]
  Ratio: 1
[10]
  Ratio: 1.28

## Cc1cn([C@@H]2C[C@H](CO)[C@@H](N=[N+]=[N-])C2)c(=O)[nH]c1=O
Vero [11]
  VR: 0

## Cc1cn([C@@H]2C[C@H](CO)[C@H](N)C2)c(=O)[nH]c1=O
L929 [6]
  VR: 0.9
Vero [12]
  VR: 0
Vero [13]
  VR: 0
[10]
  Ratio: 0.9

## Cc1cn([C@@H]2C[C@H](CO)[C@H](N=[N+]=[N-])C2)c(=O)[nH]c1=O
L929 [14]
  VR: 0.2
L929 [6]
  VR: 0
L929 [7]
  VR: 0
Vero [2]
  VR: 0.6
Vero [8]
  VR: 1
Vero [3]
  VR: 0.8
[15]
  Ratio: 0.43
[16]
  Ratio: 0.5
[17]
  Ratio: 0.44

## Cc1cn(C2CC(O)C(CN=[N+]=[N-])C2)c(=O)[nH]c1=O (stereo not given)
HEp-2
  VR: 0
L929 [14]
  VR: 0.8
L929 [7]
  VR: 0
[4]
  Ratio: 0.27
